Measured values from patent publication US8076329B2, “Histamine H3-receptor ligands and their therapeutic applications” (Bioprojet, priority 2005, dated 2011).
pKi: −log10 of the molar value. Several values for one entry are separate records, joined by “and”; a condition that tells them apart may be missing. Equal entries are not always repeated. Structures can show the parent of a compound that is named as a salt.

Experiments:
[1] = molecular target: human histamine H3 receptors (Homo sapiens, UniProt Q9Y5N1); assay: H3 binding ([125I]iodoproxyfan displacement on membranes); conditions: compounds of the invention; membranes expressing human H3 receptors
Chain of human histamine H3 receptors (Q9Y5N1 whole entry): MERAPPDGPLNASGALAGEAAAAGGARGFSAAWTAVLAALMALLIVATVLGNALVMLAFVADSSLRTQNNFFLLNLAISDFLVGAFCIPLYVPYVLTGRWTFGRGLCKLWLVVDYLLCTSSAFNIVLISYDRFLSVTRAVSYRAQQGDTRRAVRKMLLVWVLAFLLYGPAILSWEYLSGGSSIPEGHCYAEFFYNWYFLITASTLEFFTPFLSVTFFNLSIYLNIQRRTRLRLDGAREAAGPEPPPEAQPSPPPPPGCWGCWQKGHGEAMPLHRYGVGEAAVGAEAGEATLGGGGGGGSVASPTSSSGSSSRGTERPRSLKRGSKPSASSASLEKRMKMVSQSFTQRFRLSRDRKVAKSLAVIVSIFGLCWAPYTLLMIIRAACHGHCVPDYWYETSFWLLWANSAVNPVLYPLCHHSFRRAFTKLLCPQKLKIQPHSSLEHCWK
Procedure: Membranes expressing human histamine H3 receptors were incubated 1 hour at room temperature in binding buffer containing 50 mM Na2HPO4/KH2PO4 pH 7.5 in a final volume of 200 μl. […] The reaction was stopped by rapid filtration through GF/B filters (pre-soaked for 2 hours with 0.3% polyethyleneimine) followed by 3 ice cold binding buffer washes. The filter-bound radioactivity was measured in a liquid scintillation counter with 50 μl of scintillation fluid.

CYP3A4 = CYP3A4 (Homo sapiens, UniProt P08684); assay: Cytochrome inhibition, fluorometric microtiter plate assay; format: in vitro ADME; conditions: CYP3A4 cytochrome inhibition (IC50, concentrations in μM for 50% inhibition), human recombinant CYP3A4, substrate BFC, compounds of the invention
Chain of CYP3A4 (P08684 whole entry, canonical isoform): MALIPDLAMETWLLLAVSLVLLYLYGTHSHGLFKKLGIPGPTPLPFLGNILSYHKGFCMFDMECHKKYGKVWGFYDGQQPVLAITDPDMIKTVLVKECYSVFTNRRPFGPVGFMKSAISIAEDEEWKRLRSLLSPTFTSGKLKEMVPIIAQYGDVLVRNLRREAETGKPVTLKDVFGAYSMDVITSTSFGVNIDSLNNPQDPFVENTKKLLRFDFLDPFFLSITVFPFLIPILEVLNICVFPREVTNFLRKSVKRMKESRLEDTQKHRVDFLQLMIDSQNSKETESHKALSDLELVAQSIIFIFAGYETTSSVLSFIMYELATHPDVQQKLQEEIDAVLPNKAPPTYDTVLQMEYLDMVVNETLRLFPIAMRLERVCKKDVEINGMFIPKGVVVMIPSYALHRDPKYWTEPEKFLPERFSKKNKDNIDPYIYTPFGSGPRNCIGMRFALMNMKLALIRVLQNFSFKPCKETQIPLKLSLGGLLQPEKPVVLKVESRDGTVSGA
Procedure: (§1) The ability of drug in human to inhibit the catalytic activity of cytochrome P-450 isoforms was assayed using microtiter plate-based, fluorometric assays for the activities of the five human major CYP forms. Inhibition potential was determined in vitro after incubation of fluorescent model substrates over various incubation time with human recombinant cytochrome isoforms in the absence or in presence of increasing concentrations of test molecules (from 1 nM to 100 μM), in comparison with specific CYP isoform inhibitors.
(§2) Incubation of drug was carried out at 37° C.±0.5° C. under agitation in the presence of human recombinant cytochrome P-450 isoforms and a NADPH generating system. The incubation conditions for each cytochrome isoform were as follows: […]

CYP2D6 = CYP2D6 (Homo sapiens, UniProt P10635); assay: as above; format: in vitro ADME; conditions: CYP2D6 cytochrome inhibition (IC50, concentrations in μM for 50% inhibition), human recombinant CYP2D6, substrate AMMC, compounds of the invention
Chain of CYP2D6 (P10635 whole entry): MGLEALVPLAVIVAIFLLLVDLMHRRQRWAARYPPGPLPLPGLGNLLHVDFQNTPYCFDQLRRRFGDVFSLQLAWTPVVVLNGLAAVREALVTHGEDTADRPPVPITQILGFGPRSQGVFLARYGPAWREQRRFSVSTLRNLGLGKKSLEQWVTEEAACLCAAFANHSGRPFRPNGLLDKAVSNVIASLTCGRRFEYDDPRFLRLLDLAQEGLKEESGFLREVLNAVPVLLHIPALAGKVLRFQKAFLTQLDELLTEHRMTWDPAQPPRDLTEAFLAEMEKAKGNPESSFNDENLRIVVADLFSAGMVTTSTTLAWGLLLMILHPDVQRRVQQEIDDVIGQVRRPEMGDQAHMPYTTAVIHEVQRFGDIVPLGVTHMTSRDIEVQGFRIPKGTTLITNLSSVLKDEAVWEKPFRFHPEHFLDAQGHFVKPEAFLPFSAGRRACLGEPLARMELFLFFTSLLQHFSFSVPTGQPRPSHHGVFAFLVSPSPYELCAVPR
Procedure: as §1, §2

Which melting point does the source give for `C[C@H]1C[C@H](C)CN(CCCOc2ccc([C@H]3CC[C@H](N(C)C)CC3)cc2)C1` (as salt: hydrochloride) [Example 12, (3S,5S)-1-{3-[4-(trans-4-dimethylaminocyclohex-1-yl)phenoxy]propyl}-3,5-dimethylpiperidine] here?
The melting point was 240 °C.

With `c1cc(-c2ccc(OCCCN3CCCCC3)cc2)ccc1CCCN1CCCCC1` (as salt: oxalate) [Example 48] as the compound, how does the melting point read?
The melting point was 130 °C.

For `CC1CCCN1CCCOc1ccc([C@H]2CC[C@H](O)CC2)cc1` (stereo partly drawn) (as salt: oxalate) [Example 66, 1-{3-[trans-4-(4-hydroxycyclohexyl)phenoxy]propyl}-2-methylpyrrolidine], which melting point is on record?
The melting point was 80 °C.

What does the source list for `C[C@H]1C[C@H](C)CN(CCCOc2ccc(C(=O)N(C)C)cc2)C1` (relative stereo) [Example 1, trans-1-{3-[4-(N,N-dimethylcarbamoyl)phenoxy]propyl}-3,5-dimethylpiperidine]?
pKi [1]: 8.54; IC50 (CYP3A4): 32 µM; IC50 (CYP2D6): > 10 µM

With `C[C@@H]1C[C@@H](C)CN(CCCOc2ccc(C3=NCCC3)cc2)C1` (relative stereo) [Example 17, trans-1-{3-[4-(4,5-dihydro-3H-pyrrol-2-yl)phenoxy]propyl}-3,5-dimethylpiperidine] as the compound, how does the pKi [1] read?
Its pKi is 9.37.

With `C[C@H]1CCCN(CCCOc2ccc(C3CCC(N4CCOCC4)CC3)cc2)C1` (single isomer, unassigned) [Example 41, dihydrochloride] as the compound, how does the pKi [1] read?
The pKi was 9.89.

And the IC50 (CYP3A4)?
Its IC50 is > 1 µM and 13 µM.

And the IC50 (CYP2D6)?
Its IC50 is > 10 µM and 14 µM.

With `O=C(c1ccccc1)c1ccc(OCCCN2CCCCC2)cc1` [Example 3] as the compound, how does the pKi [1] read?
The pKi was 8.96.

And the IC50 (CYP3A4)?
The IC50 was 18 µM.

What about the IC50 (CYP2D6) of the same compound?
Its IC50 is 32 µM.

Which results are given for `CCCC(O)(CCC)c1ccc(OCCCN2CCCCC2)cc1` [Example 7, 1-{3-[4-(1-hydroxy-1-propylbutyl)phenoxy]propyl}piperidine]?
pKi [1]: 9.13; IC50 (CYP3A4): 4 µM; IC50 (CYP2D6): 39 µM

With `OC1(c2ccc(OCCCN3CCCCC3)cc2)CCCC1` [Example 8, 1-{3-[4-(1-hydroxycyclopentyl)phenoxy]propyl}piperidine] as the compound, how does the pKi [1] read?
The pKi was 9.09.

And the IC50 (CYP3A4)?
Its IC50 is 20 µM.

What about the IC50 (CYP2D6) of the same compound?
Its IC50 is > 100 µM.

For `O=C(O)C(=O)O.O=C(O)C(=O)O.c1cc(C2=NCCCC2)ccc1OCCCN1CCCCC1` [Example 15, 6-[4-(3-piperidinopropoxy)phenyl]-2,3,4,5-tetrahydropyridine], which melting point is on record?
Its melting point is 104 °C.

What about the IC50 (CYP3A4) of the same compound?
Its IC50 is 46 µM.

What about the IC50 (CYP2D6) of the same compound?
The IC50 was > 10 µM.

With `Cc1ccccc1-c1ccc(OCCCN2CCCCC2)cc1` [Example 28, 1-{3-[(2′-methylbiphenyl-4-yl)oxy]propyl}piperidine] as the compound, how does the pKi [1] read?
Its pKi is 9.28.

And the IC50 (CYP3A4; human, recombinant human CYP3A4, probe BFC)?
The IC50 was 10 µM.

What about the IC50 (CYP2D6; human, recombinant human CYP2D6, probe AMMC) of the same compound?
The IC50 was 10 µM.

With `c1cc(-c2ccc(OCCCN3CCCCC3)cc2)cs1` [Example 29, 1-{3-[4-(3-thienyl)phenoxy]propyl}piperidine] as the compound, how does the pKi [1] read?
The pKi was 9.06.

And the IC50 (CYP3A4)?
The IC50 was > 100 µM.

And the IC50 (CYP2D6)?
The IC50 was 24 µM.

With `c1cncc(-c2ccc(OCCCN3CCCCC3)cc2)c1` [Example 32, 1-{3-[4-(3-pyridyl)phenoxy]propyl}piperidine] as the compound, how does the pKi [1] read?
Its pKi is 9.66.

What about the IC50 (CYP3A4) of the same compound?
Its IC50 is 9 µM.

What about the IC50 (CYP2D6) of the same compound?
Its IC50 is 7 µM.

Which results are given for `c1cc(-c2ccc(OCCCN3CCCCC3)cc2)ccc1OCCCN1CCCCC1` [Example 35, di-1,1′-{(biphenyl-4,4′-diyl)bis[oxy(propan-1,3-diyl)]}piperidine]?
pKi [1]: 10.00; IC50 (CYP3A4): 5 µM; IC50 (CYP2D6): 71 µM

Which results are given for `c1cc(-c2ccc(OCCCN3CCCC3)cc2)ccc1OCCCN1CCCCC1` [Example 37, 1-(3-{[4′-(3-piperidinopropoxy)biphenyl-4-yl]oxy}propyl)pyrrolidine]?
melting point: 105 to 108 °C; IC50 (CYP3A4): 15 µM; IC50 (CYP2D6): > 10 µM

What does the source list for `c1cc(-c2ccc(OCCCN3CCCCC3)cc2)ccc1CN1CCCCC1` [Example 42, 1-(3-{[4′-(piperidinomethyl)biphenyl-4-yl]oxy}propyl)piperidine]?
melting point: 90 °C; IC50 (CYP3A4): > 10 µM; IC50 (CYP2D6): > 10 µM

Which results are given for `C(=C/c1ccc(-c2ccc(OCCCN3CCCCC3)cc2)cc1)/CN1CCCCC1` [Example 45, (Z)-1-(3-{[4′-(3-piperidinoprop-1-en-1-yl)biphenyl-4-yl]oxy}propyl)piperidine]?
IC50 (CYP3A4): 5 µM; IC50 (CYP2D6): 79 µM

Which IC50 (CYP3A4) does the source give for `CN1CCN(c2ccc(-c3ccc(OCCCN4CCCCC4)cc3)cc2)CC1` [Example 46, 1-methyl-4-[4′-(3-piperidinopropoxy)biphenyl]piperazine] here?
The IC50 was 12 µM.

What about the IC50 (CYP2D6) of the same compound?
Its IC50 is > 100 µM.

Which IC50 (CYP3A4) does the source give for `CN(C)[C@H]1CC[C@@H](Cc2ccc(OCCCN3CCCCC3)cc2)CC1` [Example 47, 1-{3-[4-(cis-4-dimethylaminocyclohex-1-yl)methylphenoxy]propyl}piperidine] here?
The IC50 was 37 µM.

What about the IC50 (CYP2D6) of the same compound?
Its IC50 is 107 µM.

Which IC50 (CYP3A4) does the source give for `c1cc(-c2ccc(OCCCN3CCCCC3)cc2)ccc1CCCN1CCCCC1` [Example 48] here?
The IC50 was 2 µM.

What about the IC50 (CYP2D6) of the same compound?
Its IC50 is 2 µM.

For `C[C@H]1C[C@H](C)CN(CCCOc2ccc([C@H]3CC[C@H](N)CC3)cc2)C1` [Example 49, (3S,5S)-1-{3-[4-(trans-4-aminocyclohex-1-yl)phenoxy]propyl}-3,5-dimethylpiperidine], which IC50 (CYP3A4) is on record?
The IC50 was 27 µM.

What about the IC50 (CYP2D6) of the same compound?
The IC50 was > 10 µM.

Which IC50 (CYP3A4) does the source give for `C[C@H]1CCCN(CCCOc2ccc(-c3cc[n+]([O-])cc3)cc2)C1` [Example 51, (3S)-4-{4-[3-(3-methylpiperidin-1-yl)propoxy]phenyl}pyridine 1-oxide] here?
Its IC50 is 72 µM.

And the IC50 (CYP2D6)?
The IC50 was > 100 µM.

Which results are given for `[O-][n+]1ccc(-c2ccc(OCCCN3CCCCC3)cc2)cc1` [Example 53, 4-[4-(3-piperidinopropoxy)phenyl]pyridine 1-oxide]?
IC50 (CYP3A4): 57 µM; IC50 (CYP2D6): 64 µM

What does the source list for `Cc1cc(-c2ccc(OCCCN3CCC[C@H](C)C3)cc2)cc[n+]1[O-]` [Example 54, 2-methyl-4-(4-{3-[(3S)-3-methylpiperidin-1-yl]propoxy}phenyl)pyridine 1-oxide]?
pKi [1]: 9.40; IC50 (CYP3A4): > 1 µM; IC50 (CYP2D6): > 10 µM

Which results are given for `C[C@H]1CCCN(CCCOc2ccc(-c3cc[n+](C)cc3)cc2)C1` [Example 57, 1-methyl-4-(4-{3-[(3S)-3-methylpiperidin-1-yl]propoxy}phenyl)pyridinium]?
IC50 (CYP3A4): > 10 µM; IC50 (CYP2D6): > 10 µM

With `C[C@H]1CCCN(CCCOc2ccc(-c3ccnc(OCCCN4CCCCC4)c3)cc2)C1` [Example 58, 2-(3-piperidinopropoxy)-4-(4-{3-[(3S)-3-methylpiperidin-1-yl]propoxy}phenyl)-pyridine] as the compound, how does the pKi [1] read?
Its pKi is 10.21.

What about the IC50 (CYP3A4) of the same compound?
The IC50 was > 10 µM.

And the IC50 (CYP2D6)?
The IC50 was > 10 µM.

For `OC1CCC(c2ccc(OCCCN3CCCCC3)cc2)CC1` (stereo not drawn) [Example 60, 1-{3-[4-(4-hydroxycyclohexyl)phenoxy]propyl}piperidine], which IC50 (CYP3A4) is on record?
Its IC50 is > 10 µM.

What about the IC50 (CYP2D6) of the same compound?
Its IC50 is > 10 µM.

What does the source list for `C[C@H]1CCCN(CCCOc2ccc([C@H]3CC[C@H](O)CC3)cc2)C1` [Example 61, (3S)-1-{3-[trans-4-(4-hydroxycyclohexyl)phenoxy]propyl}-3-methylpiperidine]?
IC50 (CYP3A4): > 10 µM; IC50 (CYP2D6): > 10 µM

With `C[C@H]1CCCN(CCCOc2ccc([C@H]3CC[C@H](O)CC3)cc2)C1` [Example 62, (3S)-1-{3-[4-(4-hydroxycyclohexyl)phenoxy]propyl}-3-methylpiperidine] as the compound, how does the pKi [1] read?
The pKi was 9.26.

With `O[C@H]1CC[C@H](c2ccc(OCCCN3CCCC3)cc2)CC1` [Example 63, 1-{3-[trans-4-(4-hydroxycyclohexyl)phenoxy]propyl}pyrrolidine] as the compound, how does the IC50 (CYP3A4) read?
Its IC50 is > 10 µM.

What about the IC50 (CYP2D6) of the same compound?
The IC50 was > 10 µM.

Which results are given for `C[C@H]1CCCN(CCCOc2ccc(C3CCC(C)(O)CC3)cc2)C1` (stereo partly drawn) [Example 64, (3S)-1-{3-[4-(4-hydroxy-4-methylcyclohexyl)phenoxy]propyl}-3-methylpiperidine]?
IC50 (CYP3A4): > 10 µM; IC50 (CYP2D6): > 10 µM

With `O[C@H]1CC[C@H](c2ccc(OCCCN3CCCCC3)cc2)CC1` [Example 65, 1-{3-[trans-4-(4-hydroxycyclohexyl)phenoxy]propyl}piperidine] as the compound, how does the IC50 (CYP3A4) read?
Its IC50 is > 10 µM.

What about the IC50 (CYP2D6) of the same compound?
The IC50 was > 10 µM.

With `CC1CCCN1CCCOc1ccc([C@H]2CC[C@H](O)CC2)cc1` (stereo partly drawn) [Example 66, 1-{3-[trans-4-(4-hydroxycyclohexyl)phenoxy]propyl}-2-methylpyrrolidine] as the compound, how does the pKi [1] read?
Its pKi is 9.08.

What about the IC50 (CYP3A4) of the same compound?
The IC50 was > 10 µM.

What about the IC50 (CYP2D6) of the same compound?
The IC50 was > 10 µM.

With `CN1CCC(OCc2ccc(OCCCN3CCCCC3)cc2)CC1` [Example 67, 1-methyl-4-[4-(3-piperidinopropoxy)benzyloxy]piperidine] as the compound, how does the IC50 (CYP3A4) read?
Its IC50 is > 10 µM.

What about the IC50 (CYP2D6) of the same compound?
The IC50 was > 10 µM.

For `CN1CCC(COCc2ccc(OCCCN3CCCCC3)cc2)CC1` [Example 68, 1-methyl-4-[4-(3-piperidinopropoxy)benzyloxymethyl]piperidine], which IC50 (CYP3A4) is on record?
The IC50 was > 10 µM.

And the IC50 (CYP2D6)?
Its IC50 is > 10 µM.

With `CN1CCC(CCOCc2ccc(OCCCN3CCCCC3)cc2)CC1` [Example 69, 1-methyl-4-{2-[4-(3-piperidinopropoxy)benzyloxy]ethyl}piperidine] as the compound, how does the pKi [1] read?
The pKi was 8.92.

And the IC50 (CYP3A4)?
The IC50 was > 10 µM.

And the IC50 (CYP2D6)?
The IC50 was > 10 µM.

With `CCN1CCCC(OCc2ccc(OCCCN3CCCCC3)cc2)C1` (stereo not drawn) [Example 70, 1-ethyl-3-[4-(3-piperidinopropoxy)benzyloxy]piperidine] as the compound, how does the pKi [1] read?
The pKi was 9.46.
